Laboratory results: patent US20130109581A1, “POSITIVELY CHARGED SPECIES AS BINDING REAGENTS IN THE SEPARATION OF PROTEIN AGGREGATES FROM MONOMERS” (priority 2009, published 2013)
Values joined by “and” are separate entries in the source; they are usually repeats but may differ in a detail not shown here. Equal entries are not always repeated.

How the values were obtained:
Assay type in all cases: binding
Abeta 1-40 monomer = molecular target: T1, Abeta 1-40 monomer (Homo sapiens, UniProt P05067); experiment: Globulomer capture assay in CSF (Example 6): Abeta 1-40 noise; settings: Abeta 1-40 signal (noise), CSF samples
T1 construct: Abeta 1-40 monomer capture level; from tissue; host or cells: cerebrospinal fluid (matrix of the assay)
T1 sequence (P05067 672-711 limits assumed): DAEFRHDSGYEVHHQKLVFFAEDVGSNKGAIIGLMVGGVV
Method: A series of new potential aggregate-specific binding reagents were designed as shown below and conjugated onto magnetic Dynal M270 beads as described in Example 2. Typically 7-12 nmol of ligand (each candidate aggregate-specific binding reagent) was coated onto 1 mg of beads.
Aliquots of the beads (typically 3 ul) were added to wells of a 96 well plate, followed by sample (with or without Abeta 1-42 globulomer (an Abeta42 oligomer model) spiked in 80:20 CSF:TBSTT, typically 125 ul). The plate was sealed and incubated for 1 hour at 37° C. with shaking. The plate was washed with aqueous solutions of detergent (typically polyethylene glycol sorbitan monolaurate and n-tetradecyl-N,N-dimethyl-3-ammonio-1-propanesulfonate) to remove ubound material and the residual buffer removed. A denaturing solution (typically 0.1-0.15 N NaOH) was added to each well and the plate heated to 80° C. for 30 min with shaking. After cooling the plate to room temperature, a neutralizing buffer (typically 0.12-0.18 M NaH2PO3 in 0.4% TWEEN20,) was added and the plate was shaken briefly at room temperature. The bead eluate was analyzed using either an Aβ42-specific ELISA or the MSD® 96-Well MULTI-SPOT® Human/Rodent [4G8] Abeta Triplex Ultra-Sensitive Assay from Meso Scale Discovery (Gaithersburg, Md.). For the Aβ42-specific assay, the samples were eluted from the beads and a detection antibody (4G8 HRP) was added to a plate bearing the Aβ42-specific antibody 12F4. The plate was incubated for 1 hour, washed, the substrate was added (SuperSignal West Femto Maximum Sensitivity Substrate from Thermo Fisher, Rockville, Md.), and the luminescence was measured. The MSD plate assay was performed in a similar fashion, according to the manufacturer's protocol.
In this experiment the preferred number of charges within a given scaffold was identified. An Ala/Lys peptide framework was utilized, where the inclusion of each Lys residue increases the peptides' net charge by +1. Six hexapeptides with increasing charge (+1→+6), AAAKAA, AAKKAA, AAKKKA, AKKKKA, AKKKKK, and KKKKKK, were prepared and conjugated on the beads. The ability of these beads to capture Abeta 1-42 globulomer spiked at 1 ng/mL into CSF was tested, and the result is shown in FIG. 25. The globulomer capture level (“42 1 ng/ml” or the closed bars) was compared to the background signal of Abeta 1-42 detected in the unspiked CSF (“42 0 ng/ml”) and the background signal of Abeta 1-40 detected in unspiked CSF (“40 0 ng/ml”) or CSF spiked with AB42 oligomers “40 1 ng/ml”. The charge density, as conjugated to the magnetic beads, of each reagent evaluated in this experiment is shown below in Table 8.

Aβ42 Globulomer = molecular target: T2, Aβ42 Globulomer (Homo sapiens, UniProt P05067); experiment: Misfolded Protein Assay, LoD and capture in CSF: globulomer; settings: for LoD: spiked into CSF
T2 construct: beta amyloid (1-42) was monomerized with incubation in hexafluoroisopropanol
T2 sequence (P05067 672-713 limits assumed): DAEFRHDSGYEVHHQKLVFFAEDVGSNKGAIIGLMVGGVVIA
Method: (§1) The Ab42 aggregates were prepared as previously described: fibrils were prepared per Stine et al (JBC 2003, 278, p11612), globulomers were prepared per Barghorn et al (J Neurology 2005 95 p834), ADDLs were prepared per Lambert et al (PNAS 1998, 95 p6448), and ASPDs were prepared per Noguchi et al (JBC 2009 284 p32895). Normal CSF was pooled from clinically characterized non-demented patient CSF samples. AD CSF was pooled from clinically-characterized AD patient samples. Alzheimer's Disease Brain Homogenate (ADBH) was prepared by sonication of clinically diagnosed AD patient brain samples in 0.2M.sucrose (1:10 w/v).
(§2) For the capture assay (Misfolded Protein Assay), aliquots of the beads (30 ul) were added to wells of a 96 well plate, followed by 125 ul of sample in 80:20 CSF:TBSTT. The plate was sealed and incubated for 1 h at 37 C with shaking. The plate was washed with TBST and the residual buffer removed. A denaturing solution (0.1 N NaOH) was added to each well and the plate heated to 80 C. for 30 min with shaking. After cooling the plate to RT, a neutralizing buffer (0.12 M NaH2PO3-0.4% TW20,) was added and the plate shaken briefly at RT. The assay was analyzed using the triplex Mesoscale Discovery ELISA kit for Aβ. The Aβ in the samples eluted from the beads were detected per the manufacturer's protocol.
(§3) For the Limit of Detection (LoD) studies, serial dilutions of each aggregate were spiked into CSF and were assayed per the protocol described above. The LoD was defined as 2× over background levels.
(§4) This pattern minors the capture selectivity observed when these species are tested with 3 ul of PSR1 beads and 1 ng/mL of aggregate.

Aβ42 ADDL = Aβ42 ADDL (Homo sapiens, UniProt P05067); experiment: Misfolded Protein Assay, LoD and capture in CSF: ADDL; settings: for LoD: spiked into CSF
Aβ42 ADDL, sequence (P05067 672-713 limits assumed): as above
Method: as §1, §2, §3, §4

Aβ42 ASPD = molecular target: T3, Aβ42 ASPD (Homo sapiens, UniProt P05067); experiment: Misfolded Protein Assay, LoD and capture in CSF: ASPD; settings: for LoD: spiked into CSF
T3 construct: The Ab42 aggregates were prepared as previously described
T3 sequence (P05067 672-713 limits assumed): as above
Method: as §1, §2, §3, §4

[1] = molecular target: T4, Aβ40 aggregates in AD CSF (Homo sapiens, UniProt P05067); experiment: Discrimination between AD and normal CSF; settings: FIG. 39
T4 construct: from tissue; host or cells: pooled cerebrospinal fluid (normal or AD)
T4 sequence (P05067 672-711 limits assumed): as the sequence (P05067 672-711 limits assumed) above
Method: as §1, §2
For discriminating between AD and normal CSF, pooled normal CSF or pooled Alzheimer's Disease patient CSF, were assayed per the protocol described above.

alpha synuclein fibrils = alpha synuclein fibrils (Homo sapiens, UniProt P37840); experiment: MPA of alpha-synuclein fibrils in CSF or plasma
Method: Amylin fibrils were prepared as reported in J. Biological Chem. (1999) 274, No. 28, pp 19509-19512. To denature the fibrils, samples were treated with 5.4 M guanidine thiocyanate for 30 minutes at room temperature. The samples were then diluted to the indicated concentrations and alpha synuclein was detected by a sandwich ELISA (Invitrogen; catalog #KHB0061) according to the manufacturer's instructions.
The specificity of PSR1 beads for aggregated alpha synuclein was tested by incubating 3 ul PSR1 beads with fibrillar alpha-synuclein with or without a pretreatment with chemical denaturant (5.4 M guanidine thiocyanate for 30 minutes at room temperature). Alpha synuclein was diluted into 125 ul 80% CSF or plasma in TBSTT (50 mM Tris, 150 mM NaCl, 1% TritonX-100, 1% Tween20) at the indicated concentrations. Samples were incubated for 1 hour at 37 C and 550 rpm before washing with TBS 0.05% Tween20 buffer. Bound alpha synuclein was eluted from the beads with 4 ul 6 M guanidine thiocyanate (30 minutes at room temperature), diluted with 246 ul ELISA diluent buffer and then detected by sandwich ELISA (Invitrogen; catalog #KHB0061).

[2] = 3 ul of beads and 1 ng/mL of aggregate

Nab-Nab-Nab-Nbn-Nab-Nbn [PSR1]
40, 1 ng/ml average reading (Abeta 1-40 monomer): 234.5 RLUs
capture of Globulomer (Aβ42 Globulomer; [2]): 1267
LoD (Aβ42 Globulomer): ~140 amol
LoD (Aβ42 Globulomer; LoD = 2× over background): ~75 pg/mL and 75 pg/mL
capture of ADDL (Aβ42 ADDL; [2]): 1219
LoD (Aβ42 ADDL): ~20 amol
LoD (Aβ42 ADDL; LoD = 2× over background): ~200 pg/mL and 200 pg/mL
capture of ASPD (Aβ42 ASPD; [2]): 1096
LoD (Aβ42 ASPD): ~20 amol
LoD (Aβ42 ASPD; LoD = 2× over background): ~200 pg/mL and 200 pg/mL
Aβ40 signal in pooled AD CSF relative to normal pool [1]: higher Aβ40 signal in positive pooled AD CSF relative to unmatched normal pool
binding to alpha synuclein fibrils compared to control bead (alpha synuclein fibrils; diluted into CSF or plasma, FIG. 50): specifically bound to alpha synuclein (aSyn) fibrils
binding to alpha synuclein fibrils vs monomers (alpha synuclein fibrils; native vs denatured aSyn in CSF or plasma, FIG. 51): bound preferentially to alpha synuclein fibrils
